Data published in PubChem BioAssay AID1963970 (Molecular Pharmacology Branch, DTP, NCI, 2024).
pIC50: −log10 of the molar value.

Test system: 931267-113-T-J1-PDC multicell spheroid viability
Assay: Anticancer human tumor 931267-113-T-J1-PDC patient-derived colon adenocarcinoma cell line growth inhibition [PI3K]
Conditions: for pIC50: curve of first compound; for viability, T/C: stronger effect = lower value; active = viability on the fitted dose curve at most 10% of control; inactive = the rest
Text: Combinatorial screen of targeted agents with the PI3K inhibitors inavolisib, alpelisib, duvelisib, and copanlisib in multi-cell type tumor spheroids
A high-throughput screen of multi-cell type tumor spheroids was designed to identify active combinations of targeted small molecules and PI3K pathway inhibitors. Complex spheroids include a stromal component modeled by human endothelial cells (HUVEC) and fibroblasts modeled by human mesenchymal stem cells (MSCs). The concentration ranges selected for each drug and investigational agent were based upon clinically achievable concentrations if the clinical Cmax of the agent was known.
Compounds. The drugs and investigational agents: inavolisib (NSC800729), alpelisib (NSC765974), duvelisib (NSC772469), copanlisib (NSC816437), ipatasertib (NSC767898), afuresertib (NSC778305), talazoparib (NSC767125), sapanisertib (NSC764658), selumetinib (NSC741078), tovorafenib (DAY101, NSC766906), vemurafenib (NSC761431), ravoxertinib (NSC781343), sotorasib (NSC818433), MRTX1133 (NSC 836407), abemaciclib (NSC 768073), palbociclib (NSC758247), venetoclax (NSC 766270), SY5609 (NSC837396), enzalutamide (NSC755605), and darolutamide (NSC825331), were obtained from the National Cancer Institute (NCI) Developmental Therapeutics Program Chemical Repository. The FDA-approved anticancer drug set is available from the NCI Developmental Therapeutics Program. […] The stock solutions were prepared in dimethyl sulfoxide (DMSO, Sigma-Aldrich, St. Louis, MO, cat. D2650) at 800-fold the tested concentration and stored at -70 degrees C prior to their use. All drugs and investigational agents were tested over a range starting from a high concentration at or near the clinical Cmax and decreasing in half-log increments. If the clinical Cmax for an agent had not been determined, the highest concentration tested was 10 microM.
Cell Culture. All cells were maintained in an incubator at 37 degrees C and 5% CO2 with 95% humidity. The PDC lines were cultured according to standard operating procedures established by the NCI PDMR (https://pdmr.cancer.gov/sops/default.htm). All PDCs were thawed and cultured in Matrigel-coated flasks prepared with a working solution of 1X Ham's F-12 nutrient mix, without supplementation (Invitrogen, Waltham, MA, cat. 11765054), 100 U/mL penicillin-streptomycin (Invitrogen, cat. 15140122), and 2.5% Matrigel (Corning Inc., Corning, NY, cat. 354248) for the first three passages. The 354836-022-R-J1-PDC, 475296-252-R-J1-PDC, and 997726-040-R-J2-PDC lines were cultured in 6A media, which includes advanced DMEM/F-12 (Thermo Fisher Scientific, cat. 12634028), 10 mM HEPES (Thermo Fisher Scientific, cat. 15630080), 1X GlutaMAX supplement (Thermo Fisher Scientific, cat. 35050061), 0.1 mg/mL primocin (InvivoGen, San Diego, CA, cat. ant-pm-2), 10% defined fetal bovine serum, heat inactivated (HyClone Laboratories Inc., Logan, UT, cat. SH30070.03HI), 50% L-WRN conditioned media (ATCC, cat. CRL-3276), 1.25 mM N-Acetyl-L-cysteine (Sigma-Aldrich, cat. A9165), 10 mM nicotinamide (Sigma-Aldrich, cat. N0636), 1X B-27 supplement (Thermo Fisher Scientific, cat. 17504044), 1X N-2 supplement (Thermo Fisher Scientific, cat. 17502048), and 10 microM Y-27632 dihydrochloride (Tocris Bioscience, Bristol, United Kingdom, cat. 1254). The 624824-186-R-J2-PDC line was cultured in 6C/Colon 1B media, which includes all 6A media components plus 50 ng/mL human EGF recombinant protein (Thermo Fisher Scientific, cat. PHG0311). […]

[1] = second compound 0.00316 µM, first compound 0.0316 µM
[2] = second compound 0.00316 µM, first compound 0.1 µM
[3] = second compound 0.01 µM, first compound 0.0316 µM
[4] = second compound 0.01 µM, first compound 0.1 µM
[5] = second compound 0.0316 µM, first compound 0.0316 µM
[6] = second compound 0.0316 µM, first compound 0.1 µM
[7] = second compound 0.1 µM, first compound 0.0316 µM
[8] = second compound 0.1 µM, first compound 0.1 µM
[9] = second compound 0.316 µM, first compound 0.0316 µM
[10] = second compound 0.316 µM, first compound 0.1 µM
[11] = second compound 1 µM, first compound 0.0316 µM
[12] = second compound 1 µM, first compound 0.1 µM
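Note: viability read 7 days after compound addition.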

CC(=O)c1c(C)c2cnc(Nc3ccc(N4CCNCC4)cn3)nc2n(C2CCCC2)c1=O + CC(Nc1ccc2c(c1)OCCn1cc(N3C(=O)OCC3C(F)F)nc1-2)C(N)=O
inactive: viability, T/C (second compound 0.00316 µM, first compound 0.000316 µM) 104% | viability, T/C (second compound 0.00316 µM, first compound 0.001 µM) 110% | viability, T/C (second compound 0.00316 µM, first compound 0.00316 µM) 95.1% | viability, T/C (second compound 0.00316 µM, first compound 0.01 µM) 111% | viability, T/C [1] 105% | viability, T/C [2] 99.8% | viability, T/C (second compound 0.01 µM, first compound 0.000316 µM) 111% | viability, T/C (second compound 0.01 µM, first compound 0.001 µM) 101% | viability, T/C (second compound 0.01 µM, first compound 0.00316 µM) 98.7% | viability, T/C (second compound 0.01 µM, first compound 0.01 µM) 93.3% | viability, T/C [3] 108% | viability, T/C [4] 105% | viability, T/C (second compound 0.0316 µM, first compound 0.000316 µM) 108% | viability, T/C (second compound 0.0316 µM, first compound 0.001 µM) 93.5% | viability, T/C (second compound 0.0316 µM, first compound 0.00316 µM) 91.9% | viability, T/C (second compound 0.0316 µM, first compound 0.01 µM) 106% | viability, T/C [5] 110% | viability, T/C [6] 95.4% | viability, T/C (second compound 0.1 µM, first compound 0.000316 µM) 100% | viability, T/C (second compound 0.1 µM, first compound 0.001 µM) 97.7% | viability, T/C (second compound 0.1 µM, first compound 0.00316 µM) 92.7% | viability, T/C (second compound 0.1 µM, first compound 0.01 µM) 87.1% | viability, T/C [7] 105% | viability, T/C [8] 87.8% | viability, T/C (second compound 0.316 µM, first compound 0.000316 µM) 92.1% | viability, T/C (second compound 0.316 µM, first compound 0.001 µM) 88.1% | viability, T/C (second compound 0.316 µM, first compound 0.00316 µM) 81% | viability, T/C (second compound 0.316 µM, first compound 0.01 µM) 85.7% | viability, T/C [9] 91.6% | viability, T/C [10] 82.2% | viability, T/C (second compound 1 µM, first compound 0.000316 µM) 75.9% | viability, T/C (second compound 1 µM, first compound 0.001 µM) 74% | viability, T/C (second compound 1 µM, first compound 0.00316 µM) 77.8% | viability, T/C (second compound 1 µM, first compound 0.01 µM) 70.5% | viability, T/C [11] 80.1% | viability, T/C [12] 66.3%
< 7.00: pIC50 (second compound 0.00316 µM) | pIC50 (second compound 0.01 µM) | pIC50 (second compound 0.0316 µM) | pIC50 (second compound 0.1 µM) | pIC50 (second compound 0.316 µM) | pIC50 (second compound 1 µM)

CNC(=O)c1ccc(N2C(=S)N(c3ccc(C#N)c(C(F)(F)F)c3)C(=O)C2(C)C)cc1F + CC(Nc1ccc2c(c1)OCCn1cc(N3C(=O)OCC3C(F)F)nc1-2)C(N)=O
inactive: viability, T/C [1] 99% | viability, T/C [2] 102% | viability, T/C (second compound 0.00316 µM, first compound 0.316 µM) 85.9% | viability, T/C (second compound 0.00316 µM, first compound 1 µM) 111% | viability, T/C (second compound 0.00316 µM, first compound 3.16 µM) 119% | viability, T/C (second compound 0.00316 µM, first compound 10 µM) 106% | viability, T/C [3] 107% | viability, T/C [4] 93.2% | viability, T/C (second compound 0.01 µM, first compound 0.316 µM) 107% | viability, T/C (second compound 0.01 µM, first compound 1 µM) 106% | viability, T/C (second compound 0.01 µM, first compound 3.16 µM) 99.8% | viability, T/C (second compound 0.01 µM, first compound 10 µM) 109% | viability, T/C [5] 97.2% | viability, T/C [6] 90.2% | viability, T/C (second compound 0.0316 µM, first compound 0.316 µM) 96.4% | viability, T/C (second compound 0.0316 µM, first compound 1 µM) 90.1% | viability, T/C (second compound 0.0316 µM, first compound 3.16 µM) 95.1% | viability, T/C (second compound 0.0316 µM, first compound 10 µM) 87.6% | viability, T/C [7] 98.4% | viability, T/C [8] 88.5% | viability, T/C (second compound 0.1 µM, first compound 0.316 µM) 92.2% | viability, T/C (second compound 0.1 µM, first compound 1 µM) 81.9% | viability, T/C (second compound 0.1 µM, first compound 3.16 µM) 91.9% | viability, T/C (second compound 0.1 µM, first compound 10 µM) 77.6% | viability, T/C [9] 82% | viability, T/C [10] 78.9% | viability, T/C (second compound 0.316 µM, first compound 0.316 µM) 77% | viability, T/C (second compound 0.316 µM, first compound 1 µM) 76.1% | viability, T/C (second compound 0.316 µM, first compound 3.16 µM) 79.8% | viability, T/C (second compound 0.316 µM, first compound 10 µM) 70% | viability, T/C [11] 76.3% | viability, T/C [12] 67.9% | viability, T/C (second compound 1 µM, first compound 0.316 µM) 75.5% | viability, T/C (second compound 1 µM, first compound 1 µM) 70% | viability, T/C (second compound 1 µM, first compound 3.16 µM) 71.2% | viability, T/C (second compound 1 µM, first compound 10 µM) 54.7%
< 5.00: pIC50 (second compound 0.00316 µM) | pIC50 (second compound 0.01 µM) | pIC50 (second compound 0.0316 µM) | pIC50 (second compound 0.1 µM) | pIC50 (second compound 0.316 µM) | pIC50 (second compound 1 µM)
